From patent US6979686B1, “Substituted pyrazoles as p38 kinase inhibitors” (Pharmacia Corporation, priority 2001, dated 2005)

Each compound was assayed against T1, human p38 kinase alpha (Homo sapiens, UniProt Q16539) (assay: p38 kinase in vitro assay, phosphorylation of biotinylated PHAS-I with 32P-ATP). Details: @ 1.0 uM.
T1 construct: GST (N, cleaved yes); made in house; host or cells: E. coli DH10B
Type: biochemical
Procedure: The coding region of the human p38a cDNA was obtained by PCR-amplification from RNA isolated from the human monocyte cell line THP.1. […] Random primer, dNTP's and Superscript™ reagents were all purchased from Life-Technologies, Gaithersburg, Mass. The reaction was incubated at 42° C. for 1 hour. Amplification of p38 cDNA was performed by aliquoting 5 μl of the reverse transcriptase reaction into a 100 μl PCR reaction containing the following: 80 μl dH2O, 2 μl 50 mM DNTP's, 1 μl each of forward and reverse primers (50 pmol/μl), 10 μl of 10×buffer and 1 μl Expand™ polymerase (Boehringer Mannheim). The PCR primers incorporated BamHI sites onto the 5′ and 3′ end of the amplified fragment, and were purchased from Genosys. […] The PCR amplification was carried out in a DNA Thermal Cycler (Perkin Elmer) by repeating 30 cycles of 94° C. for 1 minute, 60° C. for 1 minute and 68° C. for 2 minutes. After amplification, excess primers and unincorporated dNTP's were removed from the amplified fragment with a Wizard™ PCR prep (Promega) and digested with BamHI (New England Biolabs). The BamHI digested fragment was ligated into BamHI digested PGEX 2T plasmid DNA (PharmaciaBiotech) using T-4 DNA ligase (New England Biolabs) as described by T. Maniatis, Molecular Cloning: A Laboratory Manual, 2nd ed. […] The ligation reaction was transformed into chemically competent E. coli DH10B cells purchased from Life-Technologies following the manufacturer's instructions. Plasmid DNA was isolated from the resulting bacterial colonies using a Promega Wizard™ miniprep kit.
Expression of Human p38a:
Overnight cultures were grown in-Luria Broth (LB) containing […] ampicillin. The next day, 500 ml of fresh LB was inoculated with 10 ml of overnight culture, and grown in a 2 liter flask at 37° C. with constant shaking until the culture reached an absorbance of 0.8 at 600 nm. Expression of the fusion protein was induced by addition of isopropyl b-D-thiogalactosidse (IPTG) to a final concentration of 0.05 mM. The cultures were shaken for three hours at room temperature, and the cells were harvested by centrifugation. The cell pellets were stored frozen until protein purification.
Purification of p38 Kinase-α:
All chemicals were from Sigma Chemical Co. unless noted. Twenty grams of E. coli cell pellet collected from five 1 L shake flask fermentations was resuspended in a volume of PBS (140 mM NaCl, 2.7 mM KCl, 10 mM Na2HPO4, 1.8 mM KH2PO4, pH 7.3) up to 200 ml. The cell suspension was adjusted to 5 mM DTT with 2 M DTT and then split equally into five 50 ml Falcon conical tubes. The cells were sonnicated (Ultrasonics model W375) with a 1 cm probe for 3×1 minutes (pulsed) on ice. Lysed cell material was removed by centrifugation (12,000×g, 15 minutes) and the clarified supernatant applied to glutathione-sepharose resin (Pharmacia).
Glutathione-sepharose Affinity Chromatography:
The resin was collected by centrifugation (600×g, 5 min) and washed with 2×150 ml PBS/1% Triton X-100, followed by 4×40 ml PBS. To cleave the p38 kinase from the GST-p38 fusion protein, the glutathione-sepharose resin was resuspended in 6 ml PBS containing 250 units thrombin protease (Pharmacia, specific activity>7500 units/mg) and mixed gently for 4 hours at room temperature. The glutathione-sepharose resin was removed by centrifugation (600×g, 5 min) and washed 2×6 ml with PBS. The PBS wash fractions and digest supernatant containing p38 kinase protein were pooled and adjusted to 0.3 mM PMSF.
Mono O Anion Exchange Chromatography:
The thrombin-cleaved p38 kinase was further purified by FPLC-anion exchange chromatography.

T1 sequence (Q16539 whole entry): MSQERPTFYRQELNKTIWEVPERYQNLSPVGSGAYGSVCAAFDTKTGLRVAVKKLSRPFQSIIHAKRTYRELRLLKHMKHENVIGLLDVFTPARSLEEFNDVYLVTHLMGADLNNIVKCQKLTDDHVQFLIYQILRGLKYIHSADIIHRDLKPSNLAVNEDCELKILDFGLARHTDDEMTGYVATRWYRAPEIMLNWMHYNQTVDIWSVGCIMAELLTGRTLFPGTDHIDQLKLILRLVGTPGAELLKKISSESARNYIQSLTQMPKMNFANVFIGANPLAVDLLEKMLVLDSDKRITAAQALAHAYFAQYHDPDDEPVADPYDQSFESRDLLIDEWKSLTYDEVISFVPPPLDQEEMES

P38 alpha kinase % inhib @ conc. (uM) | P38 alpha kinase % inhib @ conc. | SMILES
75.0% @ | – | CC(C)COC(=O)NCCc1[nH]nc(-c2ccc(F)cc2)c1-c1ccncc1 [Example B-1010]
64.0% @ | – | CC(C)NC(=O)NCCc1[nH]nc(-c2ccc(F)cc2)c1-c1ccncc1 [Example B-0937]
84.0% @ | – | CC(C)S(=O)(=O)NCCCc1[nH]nc(-c2ccc(F)cc2)c1-c1ccncc1 [Example B-1192]
57.0% @ | – | O=C(NCCc1[nH]nc(-c2ccc(F)cc2)c1-c1ccncc1)Nc1ccccc1F [Example B-1038]
69.0% @ | – | O=C(NCCCc1[nH]nc(-c2ccc(F)cc2)c1-c1ccncc1)c1ccccn1 [Example B-1184]
72.0% @ | – | C=CCNC(=O)NCCc1[nH]nc(-c2ccc(F)cc2)c1-c1ccncc1 [Example B-1040]
77.0% @ | – | O=C(NCCc1[nH]nc(-c2ccc(F)cc2)c1-c1ccncc1)c1ccno1 [Example B-0992]
79.0% @ | – | O=C(NCCCc1[nH]nc(-c2ccc(F)cc2)c1-c1ccncc1)C1CCCC1 [Example B-1181]
– | 84.0% @ | CNC(=O)NCCCc1[nH]nc(-c2ccc(F)cc2)c1-c1ccncc1 [Example B-1213]
– | 89.0% @ | CCN(CC)C(=O)NCCCc1[nH]nc(-c2ccc(F)cc2)c1-c1ccncc1 [Example B-1225]

Same assay, conditions: @ 1.0 uM; read-out: P38 alpha kinase % inhib @ conc.

inhibition at 1 µM | SMILES
91% | O=C(NCc1[nH]nc(-c2ccc(F)cc2)c1-c1ccncc1)c1cc2ccccc2s1 [Example B-0029]
69% | O=C(NCc1[nH]nc(-c2ccc(F)cc2)c1-c1ccncc1)c1ccc([N+](=O)[O-])cc1 [Example B-0022]

Same assay, conditions: @ 10.0 uM

P38 alpha kinase % inhib @ conc. | SMILES
38.0% @ | Cc1c(-c2ccncc2)c(-c2ccc(F)cc2)nn1CC(=O)NC1CCC(C(C)(C)C)CC1 (centres unmarked) [Example B-2350]

Same assay, conditions: Table 8; 1% DMSO; read-out: p38α Kinase Assay IC50

IC50 | SMILES
21 nM | Fc1ccc(-c2[nH]ncc2-c2ccnc(Nc3ccccc3F)n2)cc1 [Example A-325, N-(2-fluorophenyl)-4-[3-(4-fluorophenyl)-1H-pyrazol-4-yl]-2-pyrimidinamine]

Same assay, conditions: in vitro P38-alpha kinase inhibition; read-out: P38 alpha kinase IC50

IC50 | SMILES
2010 nM | Cc1noc(C)c1S(=O)(=O)NC(C)c1[nH]nc(-c2ccc(F)cc2)c1-c1ccncc1 (centres unmarked) [Example B-0653]
< 100 nM | CC(NS(=O)(=O)c1cc(S(=O)(=O)c2ccccc2)cs1)c1[nH]nc(-c2ccc(F)cc2)c1-c1ccncc1 (centres unmarked) [Example B-0661]
270 nM | CCS(=O)(=O)NC(C)c1[nH]nc(-c2ccc(F)cc2)c1-c1ccncc1 (centres unmarked) [Example B-0572]
4400 nM | O=C(NC(Cc1ccccc1)c1[nH]nc(-c2ccc(F)cc2)c1-c1ccncc1)C1CCCN1 (centres unmarked) [Example B-0749]
< 100 nM | C[C@@H](NS(=O)(=O)c1cccc(Br)c1)c1[nH]nc(-c2ccc(F)cc2)c1-c1ccncc1 [Example B-0455]
3070 nM | COc1cccc(CC(=O)NC(Cc2ccccc2)c2[nH]nc(-c3ccc(F)cc3)c2-c2ccncc2)c1 (centres unmarked) [Example B-0817]
< 100 nM | C[C@@H](NS(=O)(=O)c1cccc(Cl)c1Cl)c1[nH]nc(-c2ccc(F)cc2)c1-c1ccncc1 [Example B-0445]
5970 nM | CC(NS(=O)(=O)c1cccc2nonc12)c1[nH]nc(-c2ccc(F)cc2)c1-c1ccncc1 (centres unmarked) [Example B-0654]
9700 nM | O=C(NCc1ccccc1)NC(Cc1ccccc1)c1[nH]nc(-c2ccc(F)cc2)c1-c1ccncc1 (centres unmarked) [Example B-0725]
500 nM | CC(NC(=O)c1ccccc1I)c1[nH]nc(-c2ccc(F)cc2)c1-c1ccncc1 (centres unmarked) [Example B-0531]
120 nM | CC(C)c1ccc(S(=O)(=O)NC(C)c2[nH]nc(-c3ccc(F)cc3)c2-c2ccncc2)cc1 (centres unmarked) [Example B-0623]
250 nM | Cc1cccc(S(=O)(=O)NC(C)c2[nH]nc(-c3ccc(F)cc3)c2-c2ccncc2)c1 (centres unmarked) [Example B-0638]
300 nM | O=S(=O)(NC(Cc1ccccc1)c1[nH]nc(-c2ccc(F)cc2)c1-c1ccncc1)c1ccccc1F (centres unmarked) [Example B-0759]
2810 nM | CC(C)c1cc(C(C)C)c(C(=O)NC(C)c2[nH]nc(-c3ccc(F)cc3)c2-c2ccncc2)c(C(C)C)c1 (centres unmarked) [Example B-0674]
< 100 nM | O=S(=O)(NCCc1[nH]nc(-c2ccc(F)cc2)c1-c1ccncc1)c1cccc(Cl)c1 [Example B-1090]
830 nM | CC(NS(=O)(=O)c1cccc2cnccc12)c1[nH]nc(-c2ccc(F)cc2)c1-c1ccncc1 (centres unmarked) [Example B-0667]
410 nM | C=CCOC(=O)NC(C)c1[nH]nc(-c2ccc(F)cc2)c1-c1ccncc1 (centres unmarked) [Example B-0534]
170 nM | Cc1cccc(C(=O)NCCc2[nH]nc(-c3ccc(F)cc3)c2-c2ccncc2)c1 [Example B-1143]
30 nM | O=S(=O)(NCCc1[nH]nc(-c2ccc(F)cc2)c1-c1ccncc1)c1ccc(Cl)cc1 [Example B-1061]
470 nM | Cc1c(C)c(S(=O)(=O)NCCc2[nH]nc(-c3ccc(F)cc3)c2-c2ccncc2)c(C)c2c1OC(C)(C)CC2 [Example B-1110]
26000 nM | COc1ccc(NC(=O)NC(Cc2ccccc2)c2[nH]nc(-c3ccc(F)cc3)c2-c2ccncc2)cc1 (centres unmarked) [Example B-0741]
< 100 nM | O=S(=O)(NCCc1[nH]nc(-c2ccc(F)cc2)c1-c1ccncc1)c1ccc(F)cc1Cl [Example B-1077]

Same assay, conditions: in vitro P38-alpha kinase; read-out: P38 alpha kinase IC50

IC50 | SMILES
1390 nM | O=C(c1ccc(C(F)(F)F)cc1F)N1CCC(c2[nH]nc(-c3ccc(F)cc3)c2-c2ccncc2)CC1 [Example B-1406]
< 100 nM | C#CCOC(=O)N1CCC(c2[nH]nc(-c3ccc(F)cc3)c2-c2ccncc2)CC1 [Example B-1427]
14 nM | CC(C)(C)C(=O)N1CCC(c2[nH]nc(-c3ccc(F)cc3)c2-c2ccncc2)CC1 [Example B-1421]
670 nM | O=C(c1ccccc1Br)N1CCC(c2[nH]nc(-c3ccc(F)cc3)c2-c2ccncc2)CC1 [Example B-1398]
< 100 nM | O=S(=O)(NCCCc1[nH]nc(-c2ccc(F)cc2)c1-c1ccncc1)c1cccc2nonc12 [Example B-1282]
17300 nM | COc1ccc2[nH]cc(CCNC(=O)Cn3nc(-c4ccc(F)cc4)c(-c4ccncc4)c3C)c2c1 [Example B-2296]
25 nM | O=C(c1ccc(F)c(F)c1)N1CCC(c2[nH]nc(-c3ccc(F)cc3)c2-c2ccncc2)CC1 [Example B-1414]
3 nM | C=CCOC(=O)N1CCC(c2[nH]nc(-c3ccc(F)cc3)c2-c2ccncc2)CC1 [Example B-1362]
59 nM | O=C(NCCCc1[nH]nc(-c2ccc(F)cc2)c1-c1ccncc1)c1ccc(C(F)(F)F)cc1 [Example B-1356]
1000 nM | O=S(=O)(c1cccc2nonc12)N1CCC(c2[nH]nc(-c3ccc(F)cc3)c2-c2ccncc2)CC1 [Example B-1436]
< 100 nM | O=C(c1ccc(C(F)(F)F)cc1)N1CCC(c2[nH]nc(-c3ccc(F)cc3)c2-c2ccncc2)CC1 [Example B-1390]
4610 nM | Cc1c(-c2ccncc2)c(-c2ccc(F)cc2)nn1CC(=O)NCCN1CCOCC1 [Example B-2284]
6510 nM | Cc1c(-c2ccncc2)c(-c2ccc(F)cc2)nn1CC(=O)NCCCCN1CCCC1 [Example B-2288]
< 100 nM | C[C@@H](NS(=O)(=O)/C=C/c1ccccc1)c1[nH]nc(-c2ccc(F)cc2)c1-c1ccncc1 [Example B-0388]
< 100 nM | O=C(c1cc(F)cc(C(F)(F)F)c1)N1CCC(c2[nH]nc(-c3ccc(F)cc3)c2-c2ccncc2)CC1 [Example B-1409]
16 nM | O=C(c1c(Cl)cccc1Cl)N1CCC(c2[nH]nc(-c3ccc(F)cc3)c2-c2ccncc2)CC1 [Example B-1413]
120 nM | Cc1ccc(F)cc1S(=O)(=O)NCCCc1[nH]nc(-c2ccc(F)cc2)c1-c1ccncc1 [Example B-1256]
